Measurements as given in paper PMC4718634, “Murine GPRC6A Mediates Cellular Responses to L-Amino Acids, but Not Osteocalcin Variants” (PLoS ONE, 2016).
Bridge positions count the residues as written; N and C are the ends. Ends that are not written are not given here.

Key:
GPRC6A [1] = settings: HEK293 cells recombinantly expressing GPRC6A; ref [8], [10]–[12]; cited from earlier work
Source text: Additional interest in GPRC6A has emerged due to several studies reporting that it mediates the metabolic and endocrine effects of the de-carboxylated form of the osteoblast-derived peptide, osteocalcin (OCN).

STC-1 cell line = settings: ref [22]; cited from earlier work
Source text: Given the range of OCN variants profiled, we propose that species and/or carboxylation status is unlikely to be a cause of the lack of activity in our assays. Other potential explanations are that the species of GPRC6A is critical or that HEK293 cells lack the necessary scaffolding and/or signalling proteins found in cells endogenously expressing GPRC6A. Unfortunately, human GPRC6A was not expressed at the cell surface in our cells, precluding a study of its pharmacology. However, we identified a range of immortalised murine entero-endocrine and pancreatic β-cell lines that express Gprc6a mRNA ...

mGPRC6A (mouse GPRC6A) = molecular target: T1, mGPRC6A (mouse GPRC6A) (Mus musculus, UniProt Q8K4Z6); assay: Ca^2+i mobilisation, FlpIn-TREx-HEK293-mGPRC6A cells; format: cell-based
T1 sequence (Q8K4Z6 21-928): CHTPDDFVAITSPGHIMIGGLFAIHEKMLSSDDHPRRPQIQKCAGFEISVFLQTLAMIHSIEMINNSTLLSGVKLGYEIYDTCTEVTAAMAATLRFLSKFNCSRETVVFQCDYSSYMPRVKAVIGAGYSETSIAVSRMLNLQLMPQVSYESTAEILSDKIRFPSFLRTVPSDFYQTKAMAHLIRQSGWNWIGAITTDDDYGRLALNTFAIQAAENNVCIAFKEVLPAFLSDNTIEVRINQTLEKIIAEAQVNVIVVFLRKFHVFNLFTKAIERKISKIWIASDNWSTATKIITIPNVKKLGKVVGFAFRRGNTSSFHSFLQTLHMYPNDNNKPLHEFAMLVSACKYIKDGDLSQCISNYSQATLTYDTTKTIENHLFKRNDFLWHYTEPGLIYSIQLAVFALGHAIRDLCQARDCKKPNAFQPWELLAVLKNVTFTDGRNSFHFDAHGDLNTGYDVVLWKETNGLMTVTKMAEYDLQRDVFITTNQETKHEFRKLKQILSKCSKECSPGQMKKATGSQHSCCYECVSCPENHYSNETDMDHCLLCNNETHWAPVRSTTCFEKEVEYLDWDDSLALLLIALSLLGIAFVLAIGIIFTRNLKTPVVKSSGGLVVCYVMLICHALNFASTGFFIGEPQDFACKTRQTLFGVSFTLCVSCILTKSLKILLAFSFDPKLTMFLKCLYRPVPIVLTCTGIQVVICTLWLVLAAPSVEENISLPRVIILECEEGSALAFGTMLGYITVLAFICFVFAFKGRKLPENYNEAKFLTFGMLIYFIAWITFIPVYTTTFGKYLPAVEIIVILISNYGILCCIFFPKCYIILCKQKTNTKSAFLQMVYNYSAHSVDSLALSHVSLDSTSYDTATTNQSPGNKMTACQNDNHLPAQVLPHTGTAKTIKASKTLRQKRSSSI
Procedure: pcDNA 5/FRT/TO constructs were isogenically integrated into a FlpIn-TREx-HEK293 cell line (Life Technologies). FlpIn-TREx-HEK293-mGPRC6A and FlpIn-TREx-HEK293-hGPRC6A cells were then selected using 600 μg/ml hygromycin and 5 μg/ml blasticidin and grown in culture medium consisting of Dulbecco’s Modified Eagle Medium (DMEM), supplemented with 10% (v/v) foetal bovine serum (FBS) at 37°C in 5% CO2 and were sub-cultured in a 1:3 ratio every 3–4 days. Cells were cultured overnight in the presence of 1 μg/ml tetracycline to induce GPRC6A expression. […] 48 h after transfection, cells were selected using 3 μg/ml puromycin and grown as above.
FlpIn-TREx-HEK293-mGPRC6A cells were seeded into T75 flasks at 70% confluency. Cells were transfected with 15μg of plasmid DNA (Gαq or GαqG66D) with Lipofectamine LTX according to manufacturer's instructions, then incubated for 24h at 37°C in 5% CO2. Cells were plated into 96-well plates (10^5 cells/well) and equilibrated at 37°C in 5% CO2 for 4-6h to adhere, whereupon cells were serum starved overnight at 37°C in 5% CO2. For the assay, cells were washed twice in Ca^2+ assay buffer (150 mM NaCl, 2.6 mM KCl, 1.2 mM MgCl2, 10 mM dextrose, 10 mM HEPES, 2.2 mM CaCl2, 0.5% (w/v) BSA and 4 mM probenecid; pH 7.4). Buffer was then replaced with Ca^2+ assay buffer containing 1μM Fluo-4-AM and incubated for 1h at 37°C in 5% CO2. Cells were washed twice more and replaced with Ca^2+ assay buffer at 37°C. Serial dilutions of test agonists were added by injection in a Flexstation™ (Molecular Devices) and fluorescence was measured at 485nm excitation and 520nm emission wavelengths. Agonist responses were normalised to the peak of response to 100 μM ATP.
(§1) Data for all HEK293 assays represent the mean ± SEM of at least three independent experiments (except cell impedance, n = 2). For GLP-1 release, the data represent mean ± SEM of three to five independent experiments (except for OCN, wash; n = 2). For insulin release assays, data represent the mean ± SEM of three independent experiments (except for islet studies; n = 2). Insulin release data were normalised to the response to vehicle in either low or high [glucose]. Statistical analysis for GLP-1 release data were performed by one-way ANOVA, followed by Sidak’s multiple comparisons test (treating wash / no wash datasets separately). Statistical analyses for insulin release data were performed by two-way ANOVA (with [glucose] and drug treatment as group variables), followed by Sidak’s multiple comparisons test. Where only high [glucose] groups were evaluated, statistical analysis was by one-way ANOVA followed by Sidak’s multiple comparisons test.

mouse pancreatic islets = assay: Insulin release from mouse pancreatic islets; format: cell-based; settings: L-arginine 20 mM; *P < 0.05 vs Vehicle; n = 2; S3 Fig B
Procedure: Islets were collagenase-isolated from mice (10 x C57Bl/6; 12–13 weeks; Charles River) and incubated overnight in RPMI (with 10% FBS (v/v), 10 mM HEPES, 100 U/ml penicillin, 100 μg/ml streptomycin, sodium pyruvate and 10 mM glucose) at 37°C in 5% CO2. Islets were seeded into a 96-well plate (4 / well) in Kreb’s buffer containing 2.8 mM glucose and washed twice with the same buffer. 200 μl test drugs were added in Kreb’s buffer with the required concentration of glucose and incubated at 37°C in 5% CO2 for 90 min. The plate was centrifuged for 10 s at 200 g, supernatant recovered and insulin levels detected as described above. This protocol was approved by the IDRS (Institut de Recherches Servier) Institutional Animal Care and Use Committee.
as §1, with “Concentration-response data were analysed using a three or four parameter logistic function (Motulsky & Christopoulos, 2004) to generate estimates of agonist potency (LogEC50). Data” for “Data”

GPRC6A [2] = system: GPRC6A; design: method as in PMID 15576628; settings: chimera with goldfish 5.24 receptor and full length GPRC6A; ref [1]; cited from earlier work
22RV1 / PC-3 = settings: endogenous; ref [9] (supplement list); cited from earlier work
Source text: (§2) Supplement pone.0146846.s004.docx, table 1 | column: Functional assay

PC-3 cells = settings: endogenous; ref [18] (supplement list); cited from earlier work
Source text: as §2

TC6 = settings: endogenous; ref [11] (supplement list); cited from earlier work
Source text: as §2

Unknown species GPRC6A = settings: ref [11] (supplement list); cited from earlier work
Source text: as §2

hC6A = settings: ref [9] (supplement list); cited from earlier work
Source text: as §2

mC6A = settings: ref [18] (supplement list); cited from earlier work
Source text: as §2

| Compound | ERK1/2 phosphorylation (GPRC6A [1]) | cAMP accumulation (GPRC6A [1]) | GLP-1 release (STC-1 cell line) | EC50 (mGPRC6A (mouse GPRC6A)) [µM] | potency at murine GPRC6A (calcium and inositol phosphate, words) (mGPRC6A (mouse GPRC6A); calcium mobilisation and inositol phosphate accumulation, Discussion) | rank order of potency, Ca^2+ mobilisation (mGPRC6A (mouse GPRC6A); co-expressing GαqG66D, Fig 1D) | glucose-sensitive insulin secretion, L-arginine (mouse pancreatic islets) | agonist response of GPRC6A (GPRC6A [2]) | PSA, Runx2 expression response (22RV1 / PC-3) | pERK1/2 response (22RV1 / PC-3) | pERK1/2 response (PC-3 cells) | pERK1/2, pPKD1 response (TC6) | pERK1/2 response (Unknown species GPRC6A) | pERK1/2 response (hC6A) | cAMP response (mC6A) |
| --- | --- | --- | --- | --- | --- | --- | --- | --- | --- | --- | --- | --- | --- | --- | --- |
| de-carboxylated OCN: de-carboxylated form of the osteoblast-derived peptide, osteocalcin (YLYQWLGAPVPYPDPLEPRREVCELNPDCDELADHIGFQEAYRRFYGPV; disulfide 23-29 (inferred); not fully specified; printed as YLYQWLGAPVPYPDPLEPRREVCELNPDCDELADHIGFQEAYRRFYGPV-NH2/-COOH; ends not checked; UniProt P02818 52-100, looked up) | can stimulate cAMP accumulation or ERK1/2 phosphorylation | can stimulate cAMP accumulation or ERK1/2 phosphorylation | evoke GLP-1 release |  |  |  |  |  |  |  |  |  |  |  |  |
| N=C(N)NCCC[C@H](N)C(=O)O [L-arginine] |  |  |  | 15.8 | most potent agonists | L-ornithine > L-arginine = L-lysine | significantly increased GSIS | mediates responses to L-amino acids | pERK1/2 – response to Ca^2+, ZnCl2, OCN, Arginine, Testosterone-BSA Proliferation – response to Ca^2+, OCN PSA, Runx2 expression – response to OCN, Arg, R1881 Chemotaxis (22RV1) – response to Ca^2+, OCN | pERK1/2 – response to Ca^2+, ZnCl2, OCN, Arginine, Testosterone-BSA Proliferation – response to Ca^2+, OCN PSA, Runx2 expression – response to OCN, Arg, R1881 Chemotaxis (22RV1) – response to Ca^2+, OCN | pERK1/2 – response to Testosterone, L-Arg | pERK1/2, pPKD1 – response to OCN, L-Arg | pERK1/2 - response to Ca^2+, L-Arg, OCN. | pERK1/2 – response to Ca^2+, ZnCl2, OCN, Arginine, Testosterone-BSA | cAMP – response to Testosterone, L-Arg pERK1/2 – response to Testosterone |
